Test results from patent publication US11523610B2, “Regulating plant growth using a diapocarotenoid” (King Abdullah University of Science and Technology, priority 2018, dated 2022).

Assays:
[1] = tested on: Arabidopsis seedlings (anchor roots); experiment: ANR formation under OH-Apo10′ and OH-Apo12′ treatment; format: in vivo; conditions: 10 μM, counted at 10 DAG
Text: FIGS. 21A-D show a diapocarotenoid precursor (OH-Apo12′) is converted into anchorene in plants, according to one or more embodiments of the present disclosure. […] (B) is a histogram showing quantification of achorene in mock, OH-Apo10′, and OH-Apo12′ fed Arabidopsis seedlings. (C) is a histogram showing ANR emergence in mock, OH-Apo10′, and OH-Apo12′ fed seedlings. […] For B and C, two-tailed Student's t-test, **P<0.01, *** P<0.001; in B, n=4; in C data are presented as mean ±SD from 3 independent replicates; in B, 12-day-old seedlings were incubated with indicated chemicals for 6 hours and 20 μM OH-Apol10′ and OH-Apo12′ were used; and C, 10 μM OH-Apol ′ and OH-Apo12′ were used and the ANR No./plant was counted at 10 DAG. For the quantification of ANR formation under OH-Apo10′ and OH-Apo12′ treatment conditions, the sterilized Arabidopsis seeds were exposed to light for 24 hours first, and then plated to 1/2 MS plates with indicated chemicals; the plates were kept under darkness (22° C.) for another two days and then exposed to long day light conditions for another 7 days to count the ANR emergence.

[2] = LC-MS quantification of anchorene in Arabidopsis tissues; conditions: 12-day-old seedlings incubated 6 hours with 20 μM; compared to control and OH-APO10′
Method: About 30 mg (30-40 mg) of freeze-dried and ground Arabidopsis seedlings tissues were extracted using 1 mL of acetonitrile with anti-oxidant [0.1% butylated hydroxytoluene (BHT)] for 15 min in an ultrasonic bath (Branson® 5510EDTH, 25° C., 15 min), followed by centrifugation for 8 min at 13000 rpm at 4° C. The collected supernatant was dried using a concentrator (Labconco RapidVap® System). The extract was derivatized (SCHEME 3) with 50 μL of derivatization solution containing 5 mg/mL derivatization reagent (N^2,N^2,N^4,N^4-tetraethyl-6-hydrazineyl-1,3,5-triazine-2,4-diamine) (Chemspace) and 1% formic acid in methanol at 37° C. for 15 min. Then the sample solution was diluted to 150 μL with 1% formic acid in methanol and filtered by using 0.22 μm filter before LC-MS analysis.
The quantitative analysis of derivative anchorene were carried out on HPLC-Q-Trap MS/MS. Chromatographic separation was achieved on an Acquity UPLC CSH C18 column (50×2.1 mm; 1.7 μm; Waters) using a mobile phase consisting of water: acetonitrile (95:5, v:v, A) and pure acetonitrile (B), both containing 0.1% formic acid. A gradient was applied, starting with 10% B and increasing to 40% B over 5 min. Then 15% B was increased
within 10 min followed by an increase of 45% B over 2 min. And then 100% B was maintained for 10 min. To equilibrate the column before the next run, the mobile phase was adjusted back to 10% B in 1 min and this concentration was maintained for 8 min prior to the next sample injection. A flow rate of 0.15 mL/min and a column temperature of 40° C. were maintained throughout the run. The eluent of the column was introduced to the mass spectrometer using turbo spray ion source in positive mode. The injection volume was 10 μL. The conditions of the mass spectrometer were set as following: curtain gas: 30; ion spray voltage: 5 kV; temperature: 400° C.; ion source gas 1: 30; ion source gas 2: 40; declustering potential, 55; entrance potential: 10; collision energy: 25; collision cell exit potential: 10. […]

Row | SMILES | anchor roots formed compared to mock (ANR No./plant) [1] | anchorene content of fed seedlings [2]
1 | CC(C=CC=O)=CC=CC=C(C)C=CC=C(C)C=CC1=C(C)CC(O)CC1(C)C (stereo not drawn) [OH-APO10′, reference compound] | not | –
2 | CC1=C(/C=C/C(C)=C/C=C/C(C)=C/C=C/C=C(\C)C=O)C(C)(C)CC(O)C1 (stereo not drawn) [OH-APO12′, all-trans-3-OH-β12′-carotenal] | formed more anchor routes | much more anchorene
